Measurements: US9822342B2, “Method of efficiently inducing cardiomyocytes” (KYOTO UNIVERSITY, priority 2013, dated 2017)

Experiments:
Type in all cases: cell-based, human
[1] = system: MYH, 409B2, 606A1, 457C1 and KhES1 cell lines; assay: IW and IWDS methods, timing of dissociation/reaggregation (2); conditions: IW method; dissociation at d2.5 to d5; evaluated at d15
Description: (§1) In the modified method for inducing cardiomyocytes (IW) and the IWDS method described above, the timing of the dissociation into single cells and the reaggregation carried out on Day 4 was changed to investigate the effect of the change on pluripotent stem cell lines (KhES1 cell line, KhES3 cell line, MYH cell line, 409B2 cell line, 427F1 cell line, 606A1 cell line, 610B1 cell line, 457C1 cell line, 604A1 cell line, and 648A1 cell line) (FIG. 8). The culture from Day 1 in STEMPRO 34 supplemented with 1% L-glutamine, 150 μg/mL transferrin, 50 μg/mL ascorbic acid, 3.9×10^−3% MTG, 18 ng/mL BMP4, 10 ng/mL bFGF, and 12 ng/mL activin A was carried out for various periods within the range of 1.5 days to 5 days. Thereafter, dissociation and reaggregation of the obtained cells were carried out. That is, dissociation of each cell line was carried out at various times between Day 2.5 (d2.5) and Day 6 (d6) after the induction at intervals of 6 hours, followed by reaggregation culture.
(§2) In the last step, the cells of each cell line were cultured under normal oxygen concentration until d15 in STEMPRO 34 supplemented with 1% L-glutamine, 150 μg/mL transferrin, 50 μg/mL ascorbic acid, 3.9×10^−3% MTG, 10 ng/mL VEGF, and 5 ng/mL bFGF, and evaluated based on the content of cTNT-positive cells.

[2] = system: 427F1, 610B1, 604A1, 648A1 and KhES3 cell lines; assay: as above; conditions: IW method; dissociation at d2.5 to d4; evaluated at d15
Description: as §1, §2

[3] = system: 201B7 cell line (iPS cells); assay: Modified method for inducing cardiomyocytes (IW); cTNT-positive cells by flow cytometry; conditions: Day 20
Procedure: After treatment of the 201B7 cell line with CTK solution (ReproCELL) for 2 minutes, the solution was removed. Subsequently, the cells were treated with Accumax (Innovative Cell Technologies) for 5 minutes, and dissociated into single cells by pipetting. The cells were recovered by centrifugation, and plated on a low-adhesion 96-well dish (Corning) at 2500 cells/well. Culture was carried out at 37° C. under 5% oxygen in STEMPRO 34 supplemented with 1% L-glutamine, 150 μg/mL transferrin, 50 μg/mL ascorbic acid (Sigma), 3.9×10^−3% MTG, 10 μM Rock inhibitor, 2 ng/mL BMP4 (R&D), and 0.50% Matrigel (Growth Factor Reduced), to allow formation of EBs (Day 0). It was found, in this culture, that the efficiency of induction of cardiomyocytes decreases in cases where the EB cells are formed from not more than 1000 cells or not less than 4000 cells per well.
On the next day (Day 1), an equal volume of STEMPRO 34 supplemented with 1% L-glutamine, 150 μg/mL transferrin, 50 μg/mL ascorbic acid, 3.9×10^−3% MTG, 18 ng/mL BMP4, 10 ng/mL bFGF, and 12 ng/mL activin A was added to the 96-well plate in which the EBs were cultured, and culture was carried out at 37° C. under 5% oxygen for 3 days.
Subsequently (Day 4), the obtained EBs were allowed to naturally precipitate, and the medium was removed. […]
(§3) After the culture (Day 20), the obtained cells were evaluated. […]

[4] = system: 201B7 cell line (iPS cells); assay: Cardiomyocyte induction, conventional method (comparative example); cTNT-positive cells by flow cytometry; conditions: Day 20; 1 μM IWP-3 with 10 ng/mL VEGF Day 4 to Day 8; no dissociation/reaggregation
Procedure: Three days before differentiation induction (Day −3), the 201B7 cell line was treated with Collagenase type B solution (Roche) for 5 minutes, and the solution was then removed, followed by treating the cells with 0.25% trypsin-EDTA (Invitrogen) for 2 to 3 minutes. After washing the cells with PBS solution (Nacalai Tesque), the obtained iPS cells were detached with a cell scraper and recovered. The iPS cells were then plated on a well of a Matrigel-coated 6-well plate, and cultured in MEF (mouse fetal fibroblast)-conditioned medium (MEF-CM) for 3 days.
Subsequently (Day 0), treatment with Collagenase type B solution was carried out for 10 minutes. After removing the solution, the iPS cells were treated with 0.25% trypsin-EDTA for 1 to 2 minutes, and then detached with a cell scraper. STEMPRO 34 (Invitrogen) supplemented with 1% L-glutamine (Invitrogen), 150 μg/mL transferrin (Roche), 50 μg/mL ascorbic acid (Sigma), 3.9×10^−3% MTG (1-Thyoglycerol) (Sigma), 10 μM Rock inhibitor (Y-27632, Wako), and 2 ng/mL BMP4 (R&D) was added to the cells, and the cells were then divided into small clusters by pipetting. The resulting cell clusters were transferred to a well of a low-adhesion […], and culture was carried out at 37° C. under 5% oxygen to prepare embryoid bodies (EBs). […]
as §3

In the case of `Cc1ccc2nc(NC(=O)CSc3nc4c(c(=O)n3-c3ccc(F)cc3)SCC4)sc2c1` [IWP-3], the “efficiency of cardiomyocyte induction (content of cTNT-positive cells)” value [1] was “high efficiency”, the “efficiency of cardiomyocyte induction (content of cTNT-positive cells)” value [2] was “high efficiency” and the “content of cTNT-positive cells” value ([3]; dissociation/reaggregation on Day 4, 1 μM IWP-3 with 10 ng/mL VEGF for 4 days) was 82.9%. For the same molecule, the “content of cTNT-positive cells” value ([3]; no dissociation into single cells on Day 4, medium with 1 μM IWP-3 and 10 ng/mL VEGF) was 69.3% and the “content of cTNT-positive cells” value [4] was 58.6%.
